Results on five compounds are retold here after PubChem BioAssay AID1259407 (Chemical Carcinogenesis Research Information System (CCRIS), 2018).

SMILES strings stand for the structures. Calls of active or inactive are those of the source. The rule behind the calls is not given here.

This data set concerns CCRIS mutagenicity, Ames/micronucleus/aberration tests. Description: CCRIS mutagenicity studies.
Setting [1] is: Test System: AMES SALMONELLA TYPHIMURIUM, Strain/Indicator: TA100, Metabolic Activation: RAT, LIVER, S-9, AROCLOR 1254, Method: STANDARD PLATE.
Setting [2] is: Test System: AMES SALMONELLA TYPHIMURIUM, Strain/Indicator: TA1535, Metabolic Activation: RAT, LIVER, S-9, AROCLOR 1254, Method: STANDARD PLATE.
Setting [3] is: Test System: AMES SALMONELLA TYPHIMURIUM, Strain/Indicator: TA100, Metabolic Activation: RAT, LIVER, S-9, KC500 OR PHENOBARBITAL, Method: LIQUID SUSPENSION

`CC[C@@]1(O)C[C@H](O[C@H]2C[C@H](N(C)C)[C@H](O)[C@H](C)O2)c2c(cc3c(c2O)C(=O)c2c(O)ccc(O)c2C3=O)[C@H]1C(=O)OC`: the mutagenic call by setting is: (Test System: AMES SALMONELLA TYPHIMURIUM, Strain/Indicator: TA102, Metabolic Activation: NONE, Method: STANDARD PLATE) “active; positive”; (Test System: AMES SALMONELLA TYPHIMURIUM, Strain/Indicator: TA104, Metabolic Activation: NONE, Method: STANDARD PLATE) “active; positive”; (Test System: AMES SALMONELLA TYPHIMURIUM, Strain/Indicator: TA1537, Metabolic Activation: NONE) “active; positive”; (Test System: AMES SALMONELLA TYPHIMURIUM, Strain/Indicator: TA1537, Metabolic Activation: RAT, LIVER, S-9, AROCLOR 1254) “active; positive”.

`OCC(Br)CBr` (configuration not stated): the mutagenic call is, setting by setting: (Test System: AMES SALMONELLA TYPHIMURIUM, Strain/Indicator: TA98, Metabolic Activation: HAMSTER, LIVER, S-9, AROCLOR 1254 (10%), Method: PREINCUBATION) “active; positive”; (Test System: AMES SALMONELLA TYPHIMURIUM, Strain/Indicator: TA98, Metabolic Activation: NONE, Method: PREINCUBATION) “active; positive”; (Test System: AMES SALMONELLA TYPHIMURIUM, Strain/Indicator: TA98, Metabolic Activation: RAT, LIVER, S-9, AROCLOR 1254 (10%), Method: PREINCUBATION) “active; positive”; (Test System: AMES SALMONELLA TYPHIMURIUM, Strain/Indicator: TA100, Metabolic Activation: HAMSTER, LIVER, S-9, AROCLOR 1254 (10%), Method: PREINCUBATION) “active; positive”; (Test System: AMES SALMONELLA TYPHIMURIUM, Strain/Indicator: TA100, Metabolic Activation: NONE, Method: PREINCUBATION) “active; positive”; (Test System: AMES SALMONELLA TYPHIMURIUM, Strain/Indicator: TA100, Metabolic Activation: RAT, LIVER, S-9, AROCLOR 1254 (10%), Method: PREINCUBATION) “active; positive”. The mutagenic call under setting [1] was “active; positive”; the mutagenic call (Test System: AMES SALMONELLA TYPHIMURIUM, Strain/Indicator: TA102, Metabolic Activation: S-9, Method: STANDARD PLATE) is “active; positive”; the mutagenic call (Test System: AMES SALMONELLA TYPHIMURIUM, Strain/Indicator: TA1535, Metabolic Activation: HAMSTER, LIVER, S-9, AROCLOR 1254 (10%), Method: PREINCUBATION) is “active; positive”; the mutagenic call (Test System: AMES SALMONELLA TYPHIMURIUM, Strain/Indicator: TA1535, Metabolic Activation: NONE, Method: PREINCUBATION) is “active; positive”; the mutagenic call (Test System: AMES SALMONELLA TYPHIMURIUM, Strain/Indicator: TA1535, Metabolic Activation: RAT, LIVER, S-9, AROCLOR 1254 (10%), Method: PREINCUBATION) was “active; positive”; the mutagenic call under setting [2] is “active; positive”. Besides, the mutagenic call reads like this: (Test System: AMES SALMONELLA TYPHIMURIUM, Strain/Indicator: TA1537, Metabolic Activation: HAMSTER, LIVER, S-9, AROCLOR 1254 (10%), Method: PREINCUBATION) “inactive; negative”; (Test System: AMES SALMONELLA TYPHIMURIUM, Strain/Indicator: TA1537, Metabolic Activation: NONE, Method: PREINCUBATION) “inactive; negative”; (Test System: AMES SALMONELLA TYPHIMURIUM, Strain/Indicator: TA1537, Metabolic Activation: RAT, LIVER, S-9, AROCLOR 1254 (10%), Method: PREINCUBATION) “inactive; negative”; (Test System: AMES SALMONELLA TYPHIMURIUM, Strain/Indicator: TA2638, Metabolic Activation: S-9, Method: STANDARD PLATE) “active; positive”; (Test System: E. COLI, Strain/Indicator: WP2 (PKM101), Metabolic Activation: S-9, Method: STANDARD PLATE) “active; positive”; (Test System: E. COLI, Strain/Indicator: WP2 UVRA (PKM101), Metabolic Activation: S-9, Method: STANDARD PLATE) “active; positive”. Besides, the mutagenic call (Test System: MOUSE LYMPHOMA, Strain/Indicator: L5178Y (TK+/TK-), Metabolic Activation: NONE, Method: SUSPENSION/PLATE) was “active; positive”.

As for `CCCCCN(CCCCC)N=O`, the mutagenic call under setting [3] was “active; positive”; the mutagenic call (Test System: AMES SALMONELLA TYPHIMURIUM, Strain/Indicator: TA1530, Metabolic Activation: RAT, LIVER, S-9, Method: STANDARD PLATE) was “active; positive”; the mutagenic call (Test System: CHINESE HAMSTER V-79, Strain/Indicator: V-79/8-AZAGUANINE, Metabolic Activation: CELL-MEDIATED, Method: STANDARD PLATE) is “active; positive”.

Take `CN(C)c1ccc(/C=C/c2ccccc2)cc1`: the mutagenic call is, setting by setting: (Test System: AMES SALMONELLA TYPHIMURIUM, Strain/Indicator: TA98, Metabolic Activation: HAMSTER, LIVER, S-9, AROCLOR 1254, Method: STANDARD PLATE) “active; positive”; (Test System: AMES SALMONELLA TYPHIMURIUM, Strain/Indicator: TA98, Metabolic Activation: HAMSTER, LIVER, S-9, Method: PREINCUBATION (PRIVAL METHOD)) “active; positive”; (Test System: AMES SALMONELLA TYPHIMURIUM, Strain/Indicator: TA98, Metabolic Activation: RAT, LIVER, S-9, AROCLOR 1254, HAMSTER, LIVER, S-9, AROCLOR 1254, Method: STANDARD PLATE) “active; positive”; (Test System: AMES SALMONELLA TYPHIMURIUM, Strain/Indicator: TA98, Metabolic Activation: RAT, LIVER, S-9, KC500 OR PHENOBARBITAL, Method: LIQUID SUSPENSION) “active; positive”; (Test System: AMES SALMONELLA TYPHIMURIUM, Strain/Indicator: TA100, Metabolic Activation: HAMSTER, LIVER, S-9, AROCLOR 1254 (10%), Method: STANDARD PLATE) “active; positive”; (Test System: AMES SALMONELLA TYPHIMURIUM, Strain/Indicator: TA100, Metabolic Activation: HAMSTER, LIVER, S-9, Method: PREINCUBATION (PRIVAL METHOD)) “active; positive”. Besides, the mutagenic call (Test System: AMES SALMONELLA TYPHIMURIUM, Strain/Indicator: TA100, Metabolic Activation: RAT, LIVER, S-9, AROCLOR 1254, HAMSTER, LIVER, S-9, AROCLOR 1254, Method: STANDARD PLATE) is “active; positive”; the mutagenic call under setting [3] is “active; positive”; the mutagenic call (Test System: AMES SALMONELLA TYPHIMURIUM, Strain/Indicator: TA100, Metabolic Activation: RAT, LIVER, S-9, PHENOBARBITAL, Method: STANDARD PLATE) is “active; positive”; the mutagenic call (Test System: AMES SALMONELLA TYPHIMURIUM, Strain/Indicator: TA1538, Metabolic Activation: RAT, LIVER, S-9, AROCLOR 1254, HAMSTER, LIVER, S-9, AROCLOR 1254, Method: STANDARD PLATE) was “active; positive”; the mutagenic call (Test System: AMES SALMONELLA TYPHIMURIUM, Strain/Indicator: TA1538, Metabolic Activation: RAT, LIVER, S-9, PHENOBARBITAL, Method: STANDARD PLATE) was “active; positive”; the mutagenic call (Test System: Mouse lymphoma, Strain/Indicator: L5178Y (tk+/tk-), Metabolic Activation: None, Method: Suspension/plate) is “inactive; inconclusive (pevious evaluation negative)”. Further, for the setting “Test System: Mouse lymphoma, Strain/Indicator: L5178Y (tk+/tk-), Metabolic Activation: Rat, Liver, S-9, Aroclor 1254, Method: Suspension/plate”, the mutagenic call was “active; positive”.

With `O=C(O)c1cc(I)cc2cccnc12`, the mutagenic call by setting is: (Test System: AMES SALMONELLA TYPHIMURIUM, Strain/Indicator: TA98, Metabolic Activation: NONE, Method: STANDARD PLATE) “inactive; negative”; (Test System: AMES SALMONELLA TYPHIMURIUM, Strain/Indicator: TA98, Metabolic Activation: RAT, LIVER, S-9, AROCLOR 1254, Method: STANDARD PLATE) “inactive; negative”; (Test System: AMES SALMONELLA TYPHIMURIUM, Strain/Indicator: TA100, Metabolic Activation: NONE, Method: STANDARD PLATE) “inactive; negative”; under setting [1], “inactive; negative”; (Test System: AMES SALMONELLA TYPHIMURIUM, Strain/Indicator: TA1535, Metabolic Activation: NONE, Method: STANDARD PLATE) “inactive; negative”; under setting [2], “inactive; negative”. For the same compound, the mutagenic call is, setting by setting: (Test System: AMES SALMONELLA TYPHIMURIUM, Strain/Indicator: TA1537, Metabolic Activation: NONE, Method: STANDARD PLATE) “inactive; negative”; (Test System: AMES SALMONELLA TYPHIMURIUM, Strain/Indicator: TA1537, Metabolic Activation: RAT, LIVER, S-9, AROCLOR 1254, Method: STANDARD PLATE) “inactive; negative”.
